Experimental data as given in patent US10793871B2, “Nucleic acid molecule encoding glei protein variant with increased phytic acid sensitivity and use thereof” (University-Industry Foundation, Yonsei University, priority 2015, dated 2020).

Legend:
Dbp5 ATPase = target: T1, Dbp5 ATPase (Saccharomyces cerevisiae, UniProt P20449+Q12315); conditions: yeast; InsP6 100 nM added to Gle1 and RNA; cited from earlier work
T1 sequence (P20449 1-482): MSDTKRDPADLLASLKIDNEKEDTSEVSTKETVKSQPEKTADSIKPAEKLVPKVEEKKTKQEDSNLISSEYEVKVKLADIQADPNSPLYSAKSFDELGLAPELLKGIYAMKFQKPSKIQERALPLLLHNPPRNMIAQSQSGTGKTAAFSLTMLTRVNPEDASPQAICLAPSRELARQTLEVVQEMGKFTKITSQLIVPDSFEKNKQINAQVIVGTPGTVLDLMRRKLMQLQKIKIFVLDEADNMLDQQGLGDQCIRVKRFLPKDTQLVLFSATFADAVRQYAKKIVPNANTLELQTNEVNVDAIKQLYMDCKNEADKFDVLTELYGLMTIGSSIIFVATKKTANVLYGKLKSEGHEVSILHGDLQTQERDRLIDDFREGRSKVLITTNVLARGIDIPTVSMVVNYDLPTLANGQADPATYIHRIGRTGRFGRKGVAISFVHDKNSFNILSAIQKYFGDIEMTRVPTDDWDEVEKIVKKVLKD
T1 sequence (Q12315 1-538): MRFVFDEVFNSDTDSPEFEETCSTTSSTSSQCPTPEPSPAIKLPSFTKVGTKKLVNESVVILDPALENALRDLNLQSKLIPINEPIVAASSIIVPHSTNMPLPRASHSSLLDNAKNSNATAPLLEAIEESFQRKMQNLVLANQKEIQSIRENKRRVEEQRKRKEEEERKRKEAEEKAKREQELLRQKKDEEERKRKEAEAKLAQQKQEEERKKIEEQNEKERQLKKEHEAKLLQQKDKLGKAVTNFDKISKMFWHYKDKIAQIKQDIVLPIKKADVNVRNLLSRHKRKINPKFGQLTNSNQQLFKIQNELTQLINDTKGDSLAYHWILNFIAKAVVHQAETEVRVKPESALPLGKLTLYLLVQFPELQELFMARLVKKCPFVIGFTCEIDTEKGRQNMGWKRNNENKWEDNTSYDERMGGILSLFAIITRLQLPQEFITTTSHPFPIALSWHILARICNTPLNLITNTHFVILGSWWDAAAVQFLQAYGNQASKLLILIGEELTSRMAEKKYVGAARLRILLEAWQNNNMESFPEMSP

LOS4 ATPase = assay: Steady-state ATPase assay of LOS4-His; format: biochemical, Arabidopsis thaliana
Method: A steady-state ATPase assay was performed as described by Alcázar-Román et al. (Inositol hexakisphosphate and Gle1 activate the DEAD-box protein Dbp5 for nuclear mRNA export. Nat. Cell Biol. 8: 711-716, 2006) with slight modifications. The ATPase assay was performed with a LOS4-His protein in a 96-well plate using a buffer containing 20 mM HEPES (pH 7.5), 150 mM NaCl, 3 mM MgCl2, 1 mM DTT, 2 mM ATP, 6 mM phosphoenolpyruvate, 1.2 mM NADH, 1 mg/ml BSA and 2% (v/v) pyruvate kinase/lactate dihydrogenase (Sigma-Aldrich) in a total volume of 100 μl. Polyadenylic acid was added at 50 μg/ml or different concentrations as described above. Absorbance at 340 nm was measured using a VersaMax absorbance microplate reader (Molecular Devices), and the data were analyzed using SoftMax Pro software (Molecular Devices).
Gle1 and Gle1C (aa residues 244-611) were cloned into a pMAL C2X vector (New England Biolabs) for MBP fusion, LOS4 was cloned into a pET-29a vector for His fusion. MBP-Gle1 and MBP-Gle1C proteins were expressed in a BL21 (DE3) strain, and LOS4-His proteins were expressed in a Rosseta (DE3) strain of Escherichia coli. Cells were grown at 37° C. to an A600 of 0.4, shifted to 16° C., and induced by 0.25 mM IPTG for 16 hours. The MBP- and His-fusion proteins were purified following the manufacturer's introductions using MBP Excellose (Bioprogen) and His60 Ni Superflow™ resin (Clontech), respectively.

For O=P(O)(O)O[C@H]1[C@H](OP(=O)(O)O)[C@@H](OP(=O)(O)O)[C@H](OP(=O)(O)O)[C@@H](OP(=O)(O)O)[C@H]1OP(=O)(O)O [InsP6, Myo-inositol-1,2,3,4,5,6-hexakisphosphate, reference compound], the “additional increase in Dbp5 ATPase activity” value (Dbp5 ATPase) is listed as 3- to 4 fold, the “additional increase in LOS4 activity by InsP6” value (LOS4 ATPase; InsP6 10 μM added to Gle1 and RNA (FIG. 5B)) is listed as 30% and the “increase of LOS4 ATPase activity” value (LOS4 ATPase; LOS4-His 1 μM, ATP 2 mM, RNA 50 μg/ml, MBP-Gle1 2 μM plus 10 μM InsP6) is listed as greater than 4 fold.
